Measurements published in patent publication US20230159436A1, “APPLICATIONS OF AMIDE ANALOGS OF TRITERPENES IN CURES OF CANCER AND OTHER DISEASES” (Pacific Arrow Limited, priority 2021, published 2023).
“And” between values parts separate entries of the source, which are not always exact repeats. Identical values can stand only once. Blank lines part the entries; values can stand above or below the compound they belong to.

Tests used:
H460 cells = assay: MTT assay, lung (H460); assay type: cell-based, human
Experimental: (§1) Cells. HTB-9 (bladder), HeLa-S3 (cervix), DU145 (prostate), H460 (lung), MCF-7 (breast), K562 (leukemia), HCT116 (colon), HepG2 (liver), U2OS (bone), T98G (brain), SK-MEL-5 (Skin) and OVCAR 3, ES2 (ovary), Pancreas (Capan), Mouth (KB), Kidney (A498).
(§2) MTT Assay. The procedure for MTT assay followed the method described by Carmichael et al. (1987) with modifications. The cells were seeded into a 96-well plate at for 24 hours before drug-treatment. The cells were then exposed to the drugs for 48, 72, or 96 hours. After the drug-treatment, MTT (0.5 mg/mL) was added to cultures and incubated for an hour. The formazan (product of the reduction of tetrazolium by viable cells) formed and was dissolved with DMSO and the O.D. at 490 nm, and was measured by an ELISA reader. The MTT level of the cells before drug-treatment was also measured (T0). The % cell-growth (% G) is calculated as: % G=(TD−T0/TC−T0)×100(1), where TC or TD represents O.D. readings of control or drug-treated cells.
(§3) When T0>TD, then the cytotoxicity (LC) expressed as % of the control is calculated as: % LC=(TD−T0/T0)×100(2).
A. Cells • H460 cells are derived from a Human Lung large cell carcinoma. Cells were grew in RPMI 1640 medium supplemented with 10% FCS, antibiotics and glutamine. 5000 cells were seeded in a well (96-welled plate) for one day before drug-treatment
B. Drug Treatment: • Drug: Tig-S (stored as a 1000× stock solution in DMSO) was used. • Drug concentration used: from 0.15-20 ug/ml. • Drug-treatment was carried out for 1, 2 and 4 days. For the 4 days incubation, cells were fed with fresh medium (with drug) on day 2.
C. At the end of the drug-treatment, cytotoxic test was performed with MTT assay.

ES2 cells = assay: MTT assay, ovary (ES2); assay type: cell-based, human
Experimental: as §1, §2, §3
(§4) Experiment 30: A Comparison of Non-Cancerous with Cancer Cells: • Method: A. Cells • WI38 is a Normal Lung fibroblast. Cells were grew in MEM medium supplemented with 10% FCS, antibiotics and glutamine. 20K cells were seeded per well (96-welled plate) for one day before drug-treatment • ES2 is a Ovary Clear cells carcinoma. Cells were grew in RPMI-1640 medium supplemented with 10% FCS, antibiotics and glutamine. 10K cells were seeded per well (96-welled plate) for one day before drug-treatment.
(§5) B. Drug Treatment: • Drug: Tig-S. stored as 1000× stock solution in DMSO. • Drug concentration used: from 0.15-20 ug/ml. • Drug-treatment was carried out for 2 days (ES2) or 6 days (WI38). For the 6 days incubation, cells were fed with fresh medium (with drug) on day 3 and 5.
(§6) C. At the End of the Drug-Treatment, Cytotoxic Test was Performed with MTT Assay.

HCT116 = assay: MTT assay, colon (HCT116); assay type: cell-based
Experimental: as §1, §2, §3

Capan cells = assay: MTT assay, pancreas (Capan); assay type: cell-based, human
Experimental: as §1, §2, §3
A. Cells: Capan cells are derived from Human pancreas carcinoma (pancreas). Cells were grew in RPMI 1640 medium supplemented with 10% FCS, antibiotics and glutamine. […]
C. […] The percentage of drug-treated cells' growth as compared to those of the no drug control is determined.

OVCAR3 = assay: MTT assay, ovary (OVCAR3); assay type: cell-based
Experimental: as §1, §2, §3

KB cells = assay: MTT assay, mouth (KB); assay type: cell-based
Experimental: as §1, §2, §3

MCF-7 = assay: MTT assay, breast (MCF-7); assay type: cell-based
Experimental: as §1, §2, §3

T98G = assay: MTT assay, brain (T98G); assay type: cell-based
Experimental: as §1, §2, §3

WI38 cells = assay: MTT assay, normal lung fibroblast (WI38); assay type: cell-based, human
Experimental: as §2, §3, §4, §5, §6

Swiss3T3 cells = assay: Cytotoxicity determination in Swiss3T3 normal fibroblast; assay type: cell-based; details: mouse normal fibroblast; preliminary results
Experimental: as §2

[1] = system: cancer growth, cancer invasion, cells invasion or cancer cell invasion; assay: Inhibition of cancer growth and invasion (anti-cancer activity); assay type: cell-based
From the text: The program is based on the purification methods and biological assays including the MTT assay as described in International Application No. PCT/US05/31900, filed Sep. 7, 2005, U.S. Ser. No. 11/289,142, filed Nov. 28, 2005, and U.S. Ser. No. 11/131,551, filed May 17, 2005, and PCT/US2008/002086, 1188-ALA-PCT, filed Feb. 15, 2008, Ser. No. 12/344,682, 1020-B1-US, filed Dec. 29, 2008, US009499577B2, filed Jun. 24, 2014. The details of Analysis of gene expression of ES2 cells after Y-treatment by Microarray, Data Analysis Methods and Western blot in PCT/US2008/002086, 1188-ALA-PCT, filed Feb. 15, 2008, and the cell invasion experiments methods in International Application PCT/US2010/0042240, filed Jul. 16, 2010.

IC50 of lung (H460) (H460 cells): 4.8 µg/mL
IC50 of colon (HCT116) (HCT116): 5.2 µg/mL
IC50 of ovary (OVCAR3) (OVCAR3): 5.8 µg/mL
IC50 of mouth (KB) (KB cells): 3 µg/mL
IC50 of breast (MCF-7) (MCF-7): 4.5 µg/mL
Compound: CC=C(C)C(=O)OCC1(C)C(O)CCC2(C)C1CCC1(C)C2CC=C2C3CC(C)(C)C(O)C(O)C3(COC(=O)C(C)=CC)C(O)CC21C (stereo not drawn) [Tig-R, 24,28-O-Tigloyl-3β,16α,21β,22α,24β,28-hexahydroxyolean-12-ene]
IC50 of ovary (ES2) (ES2 cells): 2.8 ug/ml and about 2.8 ug/ml
IC50 of pancreas (Capan) (Capan cells): 2.4 µg/mL
IC50 of brain (T98G) (T98G): 8 µg/mL
IC50 in normal human fibroblast cells (WI38) (WI38 cells): 10 to 15 µg/mL
IC50 in SW3T3 cells (Swiss3T3 cells): above 20 ug/ml
anti-cancer activity [1]: have anti cancer activities

Compound: CC=C(C)C(=O)OCC1(C)C(O)CCC2(C)C1CCC1(C)C2CC=C2C3CC(C)(C)C(OC(=O)C(C)=CC)C(O)C3(CO)C(O)CC21C (centres unmarked) [Tig-S]
IC50, inhibition of lung H460 cells growth (H460 cells; 4 days): 3 µg/mL
IC50, inhibition of H460 cells' growth (H460 cells; Experiment 32, drug-treatment 1, 2 and 4 days): 3 µg/mL
drug concentration beyond which minimum cells growth inhibition was observed (H460 cells; H460): > 5 µg/mL
dead cells (H460 cells; H460, drug concentration 20 ug/ml): No dead cell was found
IC50, inhibition of lung H460 cells growth (H460 cells; one day): 3.4 µg/mL
IC50, inhibition of ES2 cells (ES2 cells; 2 days): 0.3 µg/mL
IC100 (100% inhibition of growth, no cell lost) (ES2 cells; ES2): 0.16 to 0.3 µg/mL and 0.15 to 0.3 µg/mL
% of the control cell growth (ES2 cells; ES2, at 10 ug/ml): 10%
MTT OD, % of the original value (ES2 cells; ES2, at 10 ug/ml): 12%
IC50, inhibition of pancreas cancer (Capan) cells' growth (Capan cells; drug-treatment 3 days): about 1 ug/ml
IC50, inhibition of ovarian cancer (OCAR3) cells' growth (OVCAR3): 2.5 µg/mL
IC50 of ovary (OVCAR3) (OVCAR3): 6.5
IC50, inhibition of WI38 cells (WI38 cells; 6 days): 1.5 µg/mL
% of the control cell growth (WI38 cells; WI38, at 10 ug/ml): about 55%
MTT OD, % of the original value (WI38 cells; WI38, at 20 ug/ml): about 90%
cell lost or dead (WI38 cells; WI38, at 20 ug/ml): about 10%
cells died (WI38 cells; WI38, with 10 ug/ml): 10%
anti-cancer activity [1]: have anti cancer activities
